Read-outs that look alike come from different tables or passages of the source. Marks after values point to notes of the source that are not given here.
Experiments:
P388/Adr = test: cells; type: cell-based, murine; settings: Table 1C
Summary of the method: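 Duplicate 72 h cultures at 5×10^4 cells/mL, 37 °C, 5% CO2; then XTT plus PMS for 4 h; dual-wavelength read at 450/630 nm. Resistant sublines held under their selecting agents.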

[1] = tested on: human mammary carcinoma MX-1 xenograft
Method: DMSO was used as a vehicle for epothilones. Each mouse received ≦40 μL DMSO in all experiments.
Athymic nude mice (nu/nu) were used for MX-1 and MCF-7/Adr human mammary carcinoma xenografts. Mice were obtained from Taconic Laboratory Animals and Service (Germantown, N.Y.: outbred, Swiss background).

[2] = 15 mg/kg i.p. Q2Dx5 from day 7, day 11
[3] = 15 mg/kg i.p. Q2Dx5 from day 7, day 13
[4] = 15 mg/kg i.p. Q2Dx5 from day 7, day 15
[5] = 15 mg/kg i.p. Q2Dx5 from day 7, day 17
[6] = 25 mg/kg i.p. Q2Dx5 from day 7, day 11
[7] = 25 mg/kg i.p. Q2Dx5 from day 7, day 13
[8] = 25 mg/kg i.p. Q2Dx5 from day 7, day 15
[9] = 25 mg/kg i.p. Q2Dx5 from day 7, day 17
[10] = 35 mg/kg i.p. Q2Dx5 from day 9, day 13
[11] = 35 mg/kg i.p. Q2Dx5 from day 9, day 15
[12] = 35 mg/kg i.p. Q2Dx5 from day 9, day 17
[13] = 35 mg/kg i.p. Q2Dx5 from day 9, day 19
[14] = 35 mg/kg i.p. d8,10,12,14,16, day 10
[15] = 35 mg/kg i.p. d8,10,12,14,16, day 12
[16] = 35 mg/kg i.p. d8,10,12,14,16, day 14
[17] = 35 mg/kg i.p. d8,10,12,14,16, day 16
[18] = 35 mg/kg i.p. d8,10,12,14,16, day 18
[19] = 40 mg/kg i.p. d18-26, extended after d8-16, day 20
[20] = 40 mg/kg i.p. d18-26, extended after d8-16, day 22
[21] = 40 mg/kg i.p. d18-26, extended after d8-16, day 24
[22] = 40 mg/kg i.p. d18-26, extended after d8-16, day 26
[23] = 40 mg/kg i.p. d18-26, extended after d8-16, day 28

## C/C1=C/C[C@@H](/C(C)=C/c2csc(C)n2)OC(=O)C[C@H](O)C(C)(C)C(=O)[C@H](C)[C@@H](O)[C@@H](C)CCC1 [Desoxyepothilone B, desoxyepothilone B]
P388/Adr; P388/Adr vs P388/O
  folds of resistance (IC50 ratio vs parent cell line): (0.62x)
P388/Adr; XTT, 72 h, read-out: IC50
  IC50: 4.2 nM
[1]; 15 mg/kg i.p. Q2Dx5 from day 7
  Toxicity Death: 0/6
[1]; [2]
  Average Body Weight Change: +0.8 g
  Average Tumor Size (T/C): 0.65
[1]; [3]
  Average Body Weight Change: +1.1 g
  Average Tumor Size (T/C): 0.46
[1]; [4]
  Average Body Weight Change: +1.6 g
  Average Tumor Size (T/C): 0.49**
[1]; [5]
  Average Body Weight Change: +1.5 g
  Average Tumor Size (T/C): 0.41**
[1]; 25 mg/kg i.p. Q2Dx5 from day 7
  Toxicity Death: 0/6
[1]; [6]
  Average Body Weight Change: +0.4 g
  Average Tumor Size (T/C): 0.38*
[1]; [7]
  Average Body Weight Change: +0.7 g
  Average Tumor Size (T/C): 0.11**
[1]; [8]
  Average Body Weight Change: +1.0 g
  Average Tumor Size (T/C): 0.05***
[1]; [9]
  Average Body Weight Change: +0.7 g
  Average Tumor Size (T/C): 0.04****
[1]; 25 mg/kg i.p. days 7-15
  mice tumor-free (no detectable tumor) on day 35: one out of six
[1]; 25 mg/kg i.p. days 7-15, day 17
  average tumor volume reduction: ≤ 96%
[1]; 25 mg/kg i.p. days 7-15, listed as dEpo B
  mice tumor-free (no detectable tumor) on day 35: #One out of six mice with no detectable tumor on day 35;
[1]; 35 mg/kg Q2Dx5 i.p. from day 8
  mice with no detectable tumor on day 16: two out of ten
[1]; 35 mg/kg d8-16 then 40 mg/kg Q2Dx5 from day 18
  mice with no detectable tumor on day 26: five out of ten
[1]; 35 mg/kg d8-16 then 40 mg/kg Q2Dx5 from day 18, of ten
  mice remaining tumor-free on day 60: three
[1]; 35 mg/kg d8-16 then 40 mg/kg d18-26 i.p.
  mice tumor-free up to day 80: 3/10
[1]; 35 mg/kg d8-16 then 40 mg/kg d18-26 i.p., sacrificed day 50
  mice with markedly suppressed tumors: 7/10
[1]; 35 mg/kg i.p. Q2Dx5 from day 8
  lethality: 0/10
  mice survived: 10/10
  mice with tumor non-detectable on day 18: 3 out of 10
  tumor volume reduction: 98%
[1]; 35 mg/kg i.p. Q2Dx5 from day 9
  Toxicity Death: 0/6
  Tumor Disapp.: 3/6
[1]; [10]
  Average Body Weight Change: -1.7 g
  Average Tumor Size (T/C): 0.35
[1]; [11]
  Average Body Weight Change: -2.1 g
  Average Tumor Size (T/C): 0.14
[1]; [12]
  Average Body Weight Change: -2.1 g
  Average Tumor Size (T/C): 0.04
[1]; [13]
  Average Body Weight Change: -2.4 g
  Average Tumor Size (T/C): 0.02
[1]; 35 mg/kg i.p. d8,10,12,14,16
  # Mice Died: 3/10
  Tumor Disappearance: 0/10
[1]; [14]
  Average Body Weight Change: -0.1 g
  Average Tumor Volume (T/C): 0.42
[1]; [15]
  Average Body Weight Change: +0.7 g
  Average Tumor Volume (T/C): 0.28
[1]; [16]
  Average Body Weight Change: -0.3 g
  Average Tumor Volume (T/C): 0.07
[1]; [17]
  Average Body Weight Change: -1.7 g
  Average Tumor Volume (T/C): 0.04
[1]; [18]
  Average Body Weight Change: -1.6 g
  Average Tumor Volume (T/C): 0.02
[1]; 40 mg/kg i.p. d18-26, extended after d8-16
  # Died: 0/10
[1]; 40 mg/kg i.p. d18-26, extended after d8-16, (5/10)
  Average Tumor Disappearance Duration (Day): 44(5/10) Day
[1]; [19]
  Average Body Weight Change: -1.7 g
  Tumor Disappearance: 2/10^b
[1]; [20]
  Average Body Weight Change: -2.4 g
  Tumor Disappearance: 2/10
[1]; [21]
  Average Body Weight Change: -2.4 g
  Tumor Disappearance: 3/10
[1]; [22]
  Average Body Weight Change: -1.4 g
  Tumor Disappearance: 5/10
[1]; [23]
  Average Body Weight Change: -1.2 g
  Tumor Disappearance: 5/10
[1]; 15 and 25 mg/kg i.p. days 7-15
  lethality and body weight: no lethality nor body weight reduction
[1]; 25-40 mg/kg, Q2Dx5, i.p.
  therapeutic outcome: marked tumor regression and cures
